Test results from patent US8093393B2, “Cationic ceramides, and analogs thereof, and their use for preventing or treating cancer” (MUSC Foundation for Research Development, priority 2004, dated 2012).

How the values were obtained:
[1] = test system: L929 mouse fibroblast cells; assay: TNFα-induced PGE2 release; type: cell-based
Excerpt: Interleukin-1 is a major inducer of inflammation and TNF is an important regulator of the reaction. Both cytokines can activate ceramidase, and thus inhibiting the activity of ceramidase can result in an anti-inflammatory effect. This may involve the prevention of the formation of sphingosine and sphingosine phosphate which have pro-inflammatory effects. Also, inhibition of ceramidase may prevent the hyperproliferation of immune cells that are important for inflammation. […] The release of PGE2 is also shown to be inhibited by D-(N-myristolyamino)-1-phenyl-1-propanol), D-MAPP, which is an inhibitor of one of the ceramidase. This observation may be important for inhibiting inflammatory reactions that occur in conditions, such as but not limited to rheumatoid arthritis. Thus, it is possible to treat or prevent inflammation by regulating the level of cellular ceramide using the method of the invention. As discussed above, ceramide level can be increased by administering compounds of the present invention that can inhibit mitochondrial ceramidase.

UM-SCC-22A cells = assay: MTT cell survival assay and isobologram studies; type: cell-based, human; conditions: Homo sapiens, read-out: IC50 of chemotherapeutic agents
[2] = mice; cited from earlier work
telomerase = assay: Telomerase activity (TRAP) in treated cells; type: cell-based, human; conditions: UM-SCC-22A, 48 hr, C6-Pyr-Cer 1 μM, GMZ 100 nM
Method: FIGS. 13A to 13B. Roles of CCPS on cell cycle profiles, and telomerase activity of UM-SCC-22A cells. (FIG. 13A) The effects of D-e-C6—, D-e-C12- and L-th-C12-pyridinium ceramides (at 1 μM for 48 hr) on cell cycle profiles of UM-SCC-22A cells were determined and compared to that of untreated cells using flow cytometry as described in Materials and Methods. (FIG. 13B) The effects of 0, 100, 250 and 500 nM L-t-C6-Pyr-Cer (LCL-124) (lanes 1-4, respectively) at 96 hr treatment in UM-SCC-22A cells on telomerase activity was assessed using TRAP assay. Lanes 5 and 6 contain positive (+) and negative (−) controls. To examine whether C6-Pyr-Cer inhibits telomerase activity directly, cell extracts (as shown in lane 1) were incubated in the presence of various concentrations of L-th-C6-Pyr-ceramide (LCL-124; 10, 20 and 100 μM) and telomerase activity was determined using TRAP assay (lanes 7-9, respectively). The presence of non-telomeric 36 bp internal standard (IS) in the TRAP assay serves as a control for polymerase chain reaction, and used for quantitation/normalization of the activity of telomerase. The results shown are representative of at least two independent experiments.
FIGS. 14A to 14D. […] (FIG. 14A) The effects of various chemotherapeutic agents on cell growth in UM-SCC-22A cells were determined using MTT assays, and the IC50 concentrations of each agent were determined from cell growth plots as described. (FIG. 14B) The synergistic effects of DOX and L-th-C6-Pyr-Cer (LCL-124) on cell growth were assessed using isobologram studies as described in Materials and Methods. (FIG. 14C) The effects of 1 μM L-th-C6-Pyr-Cer (LCL-124) or cetyl-pyridinium-bromide, without ceramide conjugate (used as a control) on the growth inhibition potential of GMZ in UM-SCC-22A cells were determined using MTT assays. (FIG. 14D) The effects of GMZ (100 nM), L-th-C6-Pyr-Cer (LCL-124; 1 μM) or GMZ and L-th-C6-Pyr-Cer (LCL-124) (100 nM and 1 μM, respectively) on telomerase activity in UM-SCC-22A cells at 48 hr were examined using TRAP assay, and compared to that of untreated controls (lanes 2, 3, 4 and 1, respectively). The data shown are representative of at least two independent experiments performed in triplicate samples. Standard deviations in each sample were between 0.1-0.5.
Determination of telomerase activity. Telomerase activity in cell extracts was measured by the PCR-based telomere repeat amplification protocol (TRAP) using TRAPeze kit (Intergen, Gaithersburg, Md.) which includes a 36-bp internal control to allow quantification of activity. In short, the intensity of telomere-specific DNA bands, measured using Quantity One (BioRad) software, were normalized to the intensity of internal control bands for each sample on polyacrylamide gels for quantification.

telomeres = assay: Telomere length (TRF) in tumor tissues; type: in vivo, human; conditions: versus untreated controls
Excerpt: FIG. 29. […] In (B), DNA samples obtained from tumors treated with GMZ (G), L-t-C6-Pyr-Cer (Cer), and the combination of L-t-C6-Pyr-Cer with GMZ (G/C, lanes 2-4, respectively) were compared to that of untreated (U) tumors (lane 1). Lanes 5 and 6 contain DNA samples with low (L) and high (H) molecular weight (3.9 and 10.2 kb, respectively) telomeres. In (D) The levels of hTERT protein in samples obtained from tumors treated with GMZ (G), L-t-C6-Pyr-Cer (Cer), and the combination of L-t-C6-Pyr-Cer with GMZ (G/Cer, lanes 2-4, respectively) were determined by Western blot analysis using rabbit polyclonal anti-hTERT antibody, and compared to that of untreated (U) tumors (lane 1). Lanes 5 and 6 contain samples from telomerase positive (+) and negative (−) extracts. Beta-actin levels of these samples were used as loading controls (lanes 1-6, lower panel). The data shown are representative of two independent trials, and error bars represent standard deviations.
Analysis of telomere length in tumor tissues. The measurement of telomere length was performed in total genomic DNA samples isolated from tumor tissues of the SCID mice using Telomere Restriction Fragment (TRF) Length measurement kit (Roche) by Southern blotting as described in Sundararaj, et al. J Biol Chem 2004; 279:6152-6162.

UM-SCC-22A xenografts = conditions: 40 mg/kg/each IP every 4 days for 20 days
Method: A) Upper Panel: In vivo therapeutic efficacy of L-t-C6-Pyr-Cer in combination with GMZ was determined in SKID mice harboring the UM-SCC-22A xenografts implanted in both flanks. The animals were treated with L-t-C6-Pyr-Cer and GMZ at 40 mg/kg/each every 4 days for 20 days. […] In these experiments, each group contained 6 mice, harboring 12 tumors, in this study. Error bars represent standard deviations, and p values were calculated. […] C) The blood counts, the levels of serum enzymes, and electrolytes were analyzed in response to L-t-C6-Pyr-Cer alone or in combination with GMZ in SKID mice.
After tumors were grown to about 200-400 mm^3 (about two weeks after implantation), the mice were treated without or with chemotherapeutic agents with intraperitoneal (IP) injection (alone or in combination) at half of their maximum tolerated doses (MTD) every 4 days for 20 days. Tumor volumes and the weights of the animals were measured before each treatment, and tumor sizes were measured at the end of the study. The endpoint was tumor rate of growth and/or tumor volume, which was calculated using the formula: length×width^2×0.52. Each experiment included at least 6 mice (which harbored two SCC tumors in flanks) per each treatment, and experiments were done at least in two independent trials.

[3] = molecular target: T1, dihydroceramide 4,5-desaturase (Homo sapiens, UniProt O15121); assay: Conversion of dhCCPS analogs to CCPS analogs in MCF7 cells; type: cell-based; conditions: MS
T1 construct: dihydroceramide 4,5-desaturase in MCF7 cells to generate the corresponding CCPS analogs; endogenous in cells; host or cells: MCF7
T1 sequence (O15121 1-323): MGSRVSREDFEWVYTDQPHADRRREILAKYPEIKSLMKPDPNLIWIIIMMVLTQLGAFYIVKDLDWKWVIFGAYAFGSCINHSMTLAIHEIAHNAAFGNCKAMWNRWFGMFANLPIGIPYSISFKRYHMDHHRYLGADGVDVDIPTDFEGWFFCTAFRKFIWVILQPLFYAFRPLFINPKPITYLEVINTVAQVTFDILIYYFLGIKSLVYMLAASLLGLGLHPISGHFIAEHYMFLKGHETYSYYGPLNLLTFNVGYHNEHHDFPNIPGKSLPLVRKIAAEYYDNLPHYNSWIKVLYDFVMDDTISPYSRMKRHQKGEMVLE
Excerpt: Absolute levels (pmol) of dhCCPS and CCPS analogs was established by MS approach as shown in the Examples (see Section 6). Data are expressed as changes of particular dhCCPS and CCPS to the total level of dhCCPS+CCPS (100%).

MCF7 cells = conditions: 5 μM, 5 h
Method: FIGS. 4A-4C show the cellular levels of CCPS analogs. MCF 7 cells were treated with 5 μM concentration of CCPS analogs over the time and cellular level of the nonmetabolized CCPSs was measured by MS methodology as shown under Experimental. Results are expressed as % of concentration applied.
A parallel set of cells was used to determine cell proliferation and to prepare lipid extracts for MS analysis.
Briefly, for the indicated points, media was removed, cells were washed twice with PBS, scraped into cold PBS (2×1.0 ml), transferred to glass vials and centrifuged for 5 min at 800 rpm. Cell pellets corresponding to ˜1×10^6 cells, were fortified with the internal standards IS (C17 base D-erythro-sphingosine: 17Sph, C17 sphingosine-1-phosphate: 17Sph-1P, N-palmitoyl-D-erythro-C13 sphingosine: 13CC16-Cer and N-heptadecanoyl-D-erythro-C17shingosine: 17CC17-Cer) and extracted (2×2 ml) into a one-phase solvent system with ethyl acetate/iso-propanol/water (60/30/10 v/v). One ml of this extract was used for Pi determination after lipid re-extraction by the Bligh and Dyer method. Remaining lipid extract was evaporated, reconstituted in 100 μl of methanol, and samples were injected on the Surveyor/TSQ 7000 LC/MS system and gradient eluted from the BDS Hypersil C8, 150×3.2 mm, 3 μm particle size column, with 1.0 mM methanolic ammonium formate/2 mM aqueous ammonium formate mobile phase system. Peaks corresponding to the target analytes and IS were collected and processed using the Xcalibur software system.
Cellular level of CCPS analogs was established by MS methodology.

[4] = Solubility of ceramides and ceramidoids in water
[5] = test system: MCF7 breast carcinoma cells; assay: Cell proliferation and viability, Trypan blue exclusion assay; type: cell-based; conditions: 48 h treatment; read-out: IC50, inhibitory effect on MCF7 cell growth
Method: FIGS. 5A-5F show the dose dependent effects of CCPS analogs on survival of MCF7 breast carcinoma cells in comparison to the activity of D-e-C6-ceramide, which is commonly used as a model of ceramide action. Cell proliferation and cell viability were determined by Trypan blue exclusion assay. These assays were performed using duplicate samples in two or three independent experiments.
Cell Proliferation: Cells were seeded into plates at a density of approx. 50% corresponding to 1×10^6 cells, in 10 ml of 10% FCS and after an over night incubation the cells were treated with LCL compounds at concentration 0-20 μM in ethanol (ethanol level was kept below 0.1%) and the changes in cell numbers after 48 h were determined and expressed as a percentage of the untreated controls.
Briefly, media was removed, cells were washed twice with PBS, detached using 1% Trypsin and centrifuged at 800 rpm. Cell pellets were resuspended in PBS and Trypan blue (Sigma Chemicals, St. Louis, Mo., USA) was added (1:1 dilution). Under light microscope, the percentage of unstained and stained cells was assessed.
To examine the anticancer activity of CCPS analogs of the invention, their inhibitory effect on MCF7 breast carcinoma cells were analyzed and compared to the activity of D-e-C6-ceramide, which is commonly used as a model of action for ceramides. Cell proliferation and cell viability were determined by Trypan blue exclusion assay.

SMILES: CCCCCCCCCCCCCC(=O)NC(C)C(O)c1ccccc1 [D-MAPP]
- release of PGE2 [1]: inhibited

SMILES: Nc1ccn([C@@H]2O[C@H](CO)[C@@H](O)C2(F)F)c(=O)n1 [GMZ, gemcitabine, reference compound]
- IC50 (UM-SCC-22A cells): 100 to 250 nM
- MTD of reference drugs (known) [2]: 80 mg/kg
- inhibition of telomerase activity (telomerase): 50%
- reduction of TRF (telomere) length in tumors (telomeres): ~200 bp
- inhibition of HNSCC tumor growth (UM-SCC-22A xenografts): some inhibition of HNSCC tumor growth

SMILES: CCCCCCCCCCCCCCC[C@@H](O)[C@H](CO)NC(=O)CCCCCCCCCCC[n+]1ccccc1.[Br-] [LCL249, D-erythro-2-N-[12′-(1″-Pyridinium)-dodecanoyl]-4,5-dihydrosphingosine Bromide]
- metabolism of dhCCPS to the corresponding CCPS analog [3]: time dependent formation of C12-CCPS (LCL88)
- Cellular level, % of concentration applied (MCF7 cells): 7%

SMILES: CCCCCCCCCCCCCCC[C@@H](O)[C@H](CO)NC(=O)CCCCCCCCCCCCCCC[n+]1ccccc1.[Br-] [LCL345, D-erythro-2-N-[16′-(1″-Pyridinium)-hexadecanoyl]-4,5-dihydrosphingosine Bromide]
- metabolism of dhCCPS to the corresponding CCPS analog [3]: time dependent formation of C16-CCPS (LCL30)
- Solubility at 22° C. ([4]; 22° C.): 300 µg/mL
- Solubility at 22° C. ([mM]) ([4]; 22° C.): (0.42) mM
- Solubility at 37° C. ([4]; 37° C.): 1400 µg/mL
- Solubility at 37° C. ([mM]) ([4]; 37° C.): (2.0) mM
- Cellular level, % of concentration applied (MCF7 cells): 4%
- IC50 [5]: 2500 nM
